In brackets after ≈: the same amount, converted by molar mass.
Legend:
[1] = Toxicity in Wistar Han rat assessed as histological changes in lung at 30 to 400 mg/kg/day,po for 15 days by Hematoxylin and eosin staining based microscopic analysis; type: organism-based; details: in vivo, 360 h, dose 30-400 mg/kg/day, time 15 day
[2] = Toxicity in Wistar Han rat assessed as histological changes in liver at 30 to 400 mg/kg/day, po for 15 days by Hematoxylin and eosin staining based microscopic analysis; type: organism-based; details: in vivo, 360 h, dose 30-400 mg/kg/day, time 15 day
[3] = Drug metabolism in human liver hepatocytes assessed as CYP3A4 M3 metabolite formation at 1 uM preincuabted for 5 mins followed by NADPH addition and measured after 20 mins by LC-MS/MS analysis; type: ADME, cell-based, Hepatocyte
[4] = Oral bioavailability in Sprague-Dawley rat at 2 mg/kg; type: ADME, organism-based; details: in vivo
[5] = Toxicity in Wistar Hannover rat assessed as infiltration of immune cells at 30 to 400 mg/kg/day, po for 15 days by Hematoxylin and eosin staining based microscopic analysis; type: organism-based; details: in vivo, 360 h, DDE = dose-dependent effect, dose 30-400 mg/kg/day, time 15 day
[6] = Efflux ratio of apparent permeability across basolateral to apical side over apical to basolateral side in human Caco-2 cells at 10 uM incubated for 2 hrs by LC/MS/MS analysis; type: ADME, cell-based
[7] = Drug metabolism in rat liver hepatocytes assessed as CYP3A4 M3 metabolite formation at 1 uM preincuabted for 5 mins followed by NADPH addition and measured after 20 mins by LC-MS/MS analysis; type: ADME, cell-based, Hepatocyte
[8] = target: T1, Alpha-2C adrenergic receptor (Homo sapiens, UniProt P18825); assay: Inhibition of alpha2c adrenergic receptor (unknown origin)
T1 sequence (P18825 whole entry): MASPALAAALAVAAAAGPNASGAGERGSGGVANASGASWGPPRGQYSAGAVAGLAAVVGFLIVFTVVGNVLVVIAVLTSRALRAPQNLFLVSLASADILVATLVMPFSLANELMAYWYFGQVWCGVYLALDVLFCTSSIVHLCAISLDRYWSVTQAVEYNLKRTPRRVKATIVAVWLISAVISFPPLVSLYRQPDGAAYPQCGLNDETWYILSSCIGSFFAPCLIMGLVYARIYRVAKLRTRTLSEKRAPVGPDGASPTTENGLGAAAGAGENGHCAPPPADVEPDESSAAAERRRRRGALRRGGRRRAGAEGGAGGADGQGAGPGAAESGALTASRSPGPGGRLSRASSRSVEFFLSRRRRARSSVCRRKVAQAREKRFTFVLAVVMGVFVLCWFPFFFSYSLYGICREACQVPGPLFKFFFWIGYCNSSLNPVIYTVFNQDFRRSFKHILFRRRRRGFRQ

[9] = Drug metabolism in bile duct cannulated Wistar Han rat assessed as unmodified compound recovery in bile at 3 mg/kg, iv after 8 hrs by LC-MS/MS analysis; type: ADME, organism-based; details: read-out: Drug metabolism
[10] = Permeability across apical to basolateral side in human Caco-2 cells at 10 uM incubated for 2 hrs by LC/MS/MS analysis; type: ADME, cell-based; details: Caco-2, read-out: permeability
[11] = Dose normalized AUC in Sprague-Dawley rat at 2 mg/kg, po; type: ADME, organism-based; details: in vivo
Cytochrome P450 2C9 = Cytochrome P450 2C9 (Homo sapiens, UniProt P11712); assay: Inhibition of CYP2C9 in human liver microsomes using diclofenac as substrate incubated for 10 mins in presence of NADPH by LC-MS/MS analysis; type: ADME, Microsome
Sequence of Cytochrome P450 2C9 (P11712 whole entry): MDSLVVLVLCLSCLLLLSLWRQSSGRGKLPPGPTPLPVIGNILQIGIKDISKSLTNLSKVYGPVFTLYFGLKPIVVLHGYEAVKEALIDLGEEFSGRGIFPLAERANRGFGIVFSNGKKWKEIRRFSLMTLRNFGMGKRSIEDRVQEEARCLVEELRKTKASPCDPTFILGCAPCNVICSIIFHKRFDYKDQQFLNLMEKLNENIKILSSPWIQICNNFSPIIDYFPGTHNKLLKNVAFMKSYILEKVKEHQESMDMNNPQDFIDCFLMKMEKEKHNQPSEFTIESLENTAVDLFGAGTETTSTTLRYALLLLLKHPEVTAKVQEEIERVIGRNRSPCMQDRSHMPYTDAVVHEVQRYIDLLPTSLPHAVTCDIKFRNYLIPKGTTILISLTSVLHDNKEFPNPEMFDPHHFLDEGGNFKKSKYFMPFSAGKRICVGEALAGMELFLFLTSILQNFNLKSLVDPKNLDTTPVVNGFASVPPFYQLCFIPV

[12] = Drug metabolism in human liver microsomes assessed as CYP3A4 mediated M3 metabolite formation at 1 uM preincuabted for 5 mins followed by NADPH addition and measured after 20 mins by LC-MS/MS analysis; type: ADME, Microsome; details: 25 min
[13] = target: 3',5'-cyclic-AMP phosphodiesterase 4D (Homo sapiens, UniProt Q08499); assay: Inhibition of human Phosphodiesterase 4D
Sequence of 3',5'-cyclic-AMP phosphodiesterase 4D (Q08499 whole entry): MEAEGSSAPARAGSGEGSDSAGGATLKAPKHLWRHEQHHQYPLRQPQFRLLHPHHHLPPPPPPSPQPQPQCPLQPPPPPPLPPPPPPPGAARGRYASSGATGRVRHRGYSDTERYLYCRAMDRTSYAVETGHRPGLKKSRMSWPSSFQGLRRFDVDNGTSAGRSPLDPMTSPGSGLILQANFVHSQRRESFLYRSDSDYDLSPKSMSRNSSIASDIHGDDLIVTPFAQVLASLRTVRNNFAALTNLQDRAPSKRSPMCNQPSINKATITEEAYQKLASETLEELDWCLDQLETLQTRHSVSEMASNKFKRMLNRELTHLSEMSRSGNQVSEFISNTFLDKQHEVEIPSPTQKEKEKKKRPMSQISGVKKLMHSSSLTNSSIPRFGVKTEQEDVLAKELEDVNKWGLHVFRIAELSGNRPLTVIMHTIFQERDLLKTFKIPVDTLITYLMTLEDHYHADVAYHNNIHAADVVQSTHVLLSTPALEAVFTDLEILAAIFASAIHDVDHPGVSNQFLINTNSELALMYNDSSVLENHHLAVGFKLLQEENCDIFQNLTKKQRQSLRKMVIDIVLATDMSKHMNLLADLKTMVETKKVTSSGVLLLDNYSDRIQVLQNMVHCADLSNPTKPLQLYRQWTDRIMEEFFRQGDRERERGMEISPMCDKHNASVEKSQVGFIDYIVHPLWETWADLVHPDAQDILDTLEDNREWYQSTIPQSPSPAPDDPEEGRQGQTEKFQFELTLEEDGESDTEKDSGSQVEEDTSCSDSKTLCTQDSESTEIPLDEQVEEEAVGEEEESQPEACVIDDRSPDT

Cytochrome P450 2D6 = Cytochrome P450 2D6 (Homo sapiens, UniProt P10635); assay: Inhibition of CYP2D6 in human liver microsomes using bufuralol as substrate incubated for 10 mins in presence of NADPH by LC-MS/MS analysis; type: ADME, Microsome
Sequence of Cytochrome P450 2D6 (P10635 whole entry): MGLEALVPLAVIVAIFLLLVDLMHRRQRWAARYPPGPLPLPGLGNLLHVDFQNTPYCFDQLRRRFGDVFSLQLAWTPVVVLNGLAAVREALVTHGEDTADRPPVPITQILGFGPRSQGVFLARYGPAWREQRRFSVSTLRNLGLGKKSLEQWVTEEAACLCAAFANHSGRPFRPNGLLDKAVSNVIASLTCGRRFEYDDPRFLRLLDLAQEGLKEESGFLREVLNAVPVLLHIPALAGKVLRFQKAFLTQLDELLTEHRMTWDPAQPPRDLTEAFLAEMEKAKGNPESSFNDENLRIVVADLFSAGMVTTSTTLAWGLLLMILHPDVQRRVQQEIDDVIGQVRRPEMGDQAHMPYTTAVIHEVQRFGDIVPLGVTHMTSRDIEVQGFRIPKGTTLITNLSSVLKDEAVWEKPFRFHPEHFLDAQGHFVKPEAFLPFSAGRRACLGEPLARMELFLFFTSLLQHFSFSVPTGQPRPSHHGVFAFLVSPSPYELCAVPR

[14] = Drug metabolism in bile duct cannulated Wistar Han rat assessed as unmodified compound recovery in urine at 3 mg/kg, iv after 8 hrs by LC-MS/MS analysis; type: ADME, organism-based; details: read-out: Drug metabolism
[15] = Drug metabolism in rat liver microsomes assessed as CYP3A4 mediated M3 metabolite formation at 1 uM preincuabted for 5 mins followed by NADPH addition and measured after 20 mins by LC-MS/MS analysis; type: ADME, Microsome; details: 25 min
[16] = Inhibition of PRC2 (unknown origin) assessed as reduction in H3K27 trimethylation using H3K27Me0 peptide (21 to 44 residues) as substrate by measuring SAH formation by LC-MS analysis; design: species or system Homo sapiens
KARPAS-422 = assay: Antiproliferative activity against human KARPAS-422 cells expressing EZH2 mutant assessed as inhibition of cell growth after 14 days by beckman coulter counting method; type: functional; details: Homo sapiens, KARPAS-422, 336 h; time 14 day
[17] = Terminal half life in Sprague-Dawley rat at 2 mg/kg, po; type: ADME, organism-based; details: in vivo, read-out: beta t1/2 (converted)
[18] = High throughput solubility of the compound at pH 6.8 after 16 to 24 hrs by MS/MS analysis; type: physicochemical; details: buffer, time 16-24 hrs
[19] = Lipophilicity, logD of the compound at pH 7.4 by LC with tandem MS analysis; type: physicochemical; details: buffer, read-out: logD
Cytochrome P450 3A4 = Cytochrome P450 3A4 (Homo sapiens, UniProt P08684); assay: Inhibition of CYP3A4 in human liver microsomes using midazolam as substrate incubated for 10 mins in presence of NADPH by LC-MS/MS analysis; type: ADME, Microsome
Sequence of Cytochrome P450 3A4 (P08684 whole entry): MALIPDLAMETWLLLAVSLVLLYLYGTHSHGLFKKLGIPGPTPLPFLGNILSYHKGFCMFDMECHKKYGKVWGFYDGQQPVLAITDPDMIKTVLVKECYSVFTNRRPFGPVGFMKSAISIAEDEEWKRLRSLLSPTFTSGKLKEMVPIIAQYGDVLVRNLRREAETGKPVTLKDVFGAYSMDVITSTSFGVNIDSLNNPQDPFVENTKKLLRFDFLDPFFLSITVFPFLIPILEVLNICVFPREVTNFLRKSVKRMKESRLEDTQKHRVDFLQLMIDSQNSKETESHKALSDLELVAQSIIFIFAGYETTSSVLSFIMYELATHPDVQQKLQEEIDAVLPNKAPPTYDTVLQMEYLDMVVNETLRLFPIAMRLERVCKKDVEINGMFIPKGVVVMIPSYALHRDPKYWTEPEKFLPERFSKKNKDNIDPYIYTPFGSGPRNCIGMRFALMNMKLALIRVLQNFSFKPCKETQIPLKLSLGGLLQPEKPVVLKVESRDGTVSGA

cells = details: Homo sapiens, G-401, 48 h
Description: Inhibition of PRC2 in human G-401 cells assessed as H3K27 methylation status incubated for 48 hrs by ELISA method

[20] = Toxicity in Wistar Han rat assessed as histological changes in kidney at 30 to 400 mg/kg/day, po for 15 days by Hematoxylin and eosin staining based microscopic analysis; type: organism-based; details: in vivo, 360 h, dose 30-400 mg/kg/day, time 15 day
[21] = target: T2, Alpha-2A adrenergic receptor (Homo sapiens, UniProt P08913); assay: Antagonist activity against alpha2a adrenergic receptor (unknown origin); type: functional
T2 sequence (P08913 whole entry): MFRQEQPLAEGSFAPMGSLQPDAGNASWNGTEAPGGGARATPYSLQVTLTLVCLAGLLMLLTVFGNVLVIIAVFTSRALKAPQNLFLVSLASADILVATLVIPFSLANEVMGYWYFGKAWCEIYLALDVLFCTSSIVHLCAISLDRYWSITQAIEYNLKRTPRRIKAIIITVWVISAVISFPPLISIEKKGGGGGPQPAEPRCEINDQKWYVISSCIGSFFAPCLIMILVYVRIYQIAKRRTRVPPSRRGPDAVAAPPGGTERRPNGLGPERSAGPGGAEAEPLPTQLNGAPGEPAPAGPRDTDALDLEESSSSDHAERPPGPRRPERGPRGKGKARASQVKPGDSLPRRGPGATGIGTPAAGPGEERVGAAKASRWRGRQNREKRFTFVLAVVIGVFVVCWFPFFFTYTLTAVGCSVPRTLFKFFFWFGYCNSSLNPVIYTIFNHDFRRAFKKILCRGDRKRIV

[22] = Toxicity in Wistar Hannover rat assessed as degeneration of cortical adrenal gland at 30 to 400 mg/kg/day, po for 15 days by Hematoxylin and eosin staining based microscopic analysis; type: organism-based; details: in vivo, 360 h, DDE = dose-dependent effect, dose 30-400 mg/kg/day, time 15 day

- Drug metabolism [3]: Metabolite_Detected
- bioavailability [4]: 62%
- efflux ratio at 2 h, 10 µM [6]: 7.6
- Drug metabolism [7]: Metabolite_Detected
- IC50 [8]: 14 µM
- dose excreted at 8 h [9]: 0.5%
- Papp A→B at 2 h, 10 µM [10]: 3 ×10⁻⁶ cm/s
- AUC/dose [11]: 1948 nM·h
- IC50 (Cytochrome P450 2C9): > 50 µM
- Drug metabolism [12]: Metabolite_Detected
- IC50 [13]: 20 µM
- IC50 (Cytochrome P450 2D6): > 50 µM
- dose excreted at 8 h [14]: 0.9%
- Drug metabolism [15]: Metabolite_Detected
- IC50 [16]: 0.022 µM
- GI50 (KARPAS-422): 0.08 µM
- half-life [17]: 1.6 h
- solubility [18]: 12 µM (≈ 4.43 µg/mL)
- logD [19]: 1.8
- IC50 (Cytochrome P450 3A4): > 50 µM
- IC50 (cells): 0.22 µM
- IC50 [21]: 15 µM
Structure (SMILES): CS(=O)(=O)c1ccc(-c2cnc(NCc3ccco3)n3cnnc23)cc1
- Activity [1]: Non-Toxic
- Activity [2]: Non-Toxic
- Activity [5]: Dde
- Activity [20]: Non-Toxic
- Activity [22]: Dde

From ChEMBL document CHEMBL5154826, “Discovery of the Clinical Candidate MAK683: An EED-Directed, Allosteric, and Selective PRC2 Inhibitor for the Treatment of Advanced Malignancies” (J Med Chem, 2022)
